The source of these data is patent publication EP0430300A2, “Xanthine derivatives, their production and use” (Takeda Chemical Industries, Ltd., priority 1989, dated 1991).

Structures are written as SMILES. pIC50: −log10 of the molar value.

The target in this test is T1, Angiotensin II receptor (Bos taurus, UniProt P25104).
T1 construct: Angiotensin II receptor membrane fractions were prepared from bovine adrenal cortex; from tissue; host or cells: bovine adrenal cortex membrane fraction
T1 sequence (P25104 1-359): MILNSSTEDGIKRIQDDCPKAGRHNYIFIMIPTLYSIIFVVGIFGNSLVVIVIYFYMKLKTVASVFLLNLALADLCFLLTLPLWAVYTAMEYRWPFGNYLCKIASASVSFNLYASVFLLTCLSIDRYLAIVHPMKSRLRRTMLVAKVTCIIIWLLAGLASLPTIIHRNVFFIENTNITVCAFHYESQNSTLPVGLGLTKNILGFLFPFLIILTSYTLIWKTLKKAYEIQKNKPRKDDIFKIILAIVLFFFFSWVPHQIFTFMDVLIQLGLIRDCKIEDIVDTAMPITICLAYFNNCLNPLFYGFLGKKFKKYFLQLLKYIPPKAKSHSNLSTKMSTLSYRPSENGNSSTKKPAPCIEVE
The test is described as follows: Inhibitory effect on binding of angiotensin II to angiotensin receptor (125I-AII radioligand binding, membrane fractions). The settings on record: A II receptor membrane fraction from bovine adrenal cortex, room temperature, one hour, compound 10^-9-3x10^-5 M, read-out: Inhibitory Activity against Binding of Angiotensin II IC50. The protocol:
Inhibitory assay for the binding of angiotensin II to angiotensin receptor was conducted by modifying a method as described by Douglas et al. (Endocrinology, 102, 685-696 (1978)).
Angiotensin II receptor membrane fractions were prepared from bovine adrenal cortex.
The compound (I) of the present invention (10^-9-3x10^-5 M) and […] (^125I-AII) (1.8kBq/50µl) were added to the A II receptor membrane fraction and incubated at room temperature for one hour. The bound and free ^125I-AII were separated by a filter (Whatman GF/B filter) each other. The radioactivity of ^125I-All bound on the receptor was measured.

Broadly, the pIC50 is the IC50 on a negative log10 scale, so that one unit is a factor of ten. In the case of `CCCCc1nc2c(c(=O)n(CC)c(=O)n2CCC)n1Cc1ccc(-c2ccccc2-c2nn[nH]n2)cc1` [Compound 22], the negative-log IC50 (pIC50) was 6.08.

Regarding `Cn1c(=O)c2c(nc(CCCCc3ccccc3)n2Cc2ccc(-c3ccccc3-c3nn[nH]n3)cc2)n(C)c1=O` [Compound 14], the pIC50 is 6.48.

With `CCCCSc1nc2c(c(=O)n(C)c(=O)n2C)n1Cc1ccc(-c2ccccc2-c2nnn[nH]2)cc1` [Compound 34], the negative logarithm of the IC50 (pIC50) is 6.89.

Consider `CCCCc1nc2c(c(=O)n(CC)c(=O)n2CC)n1Cc1ccc(-c2ccccc2-c2nnn[nH]2)cc1` [Compound 31], for which the pIC50 was 6.96.

Take `CC(Cc1nc2c(c(=O)n(C)c(=O)n2C)n1Cc1ccc(-c2ccccc2-c2nn[nH]n2)cc1)c1ccccc1` (stereo not shown) [Compound 12]: the pIC50 was 6.48.

Consider `CCCc1nc2c(c(=O)n(C)c(=O)n2C)n1Cc1ccc(-c2ccccc2-c2nn[nH]n2)cc1` [Compound 5], for which the pIC50 is 6.77.

For the compound `CCCCc1nc2c(c(=O)n(CCC)c(=O)n2CCC)n1Cc1ccc(-c2ccccc2-c2nn[nH]n2)cc1` [Compound 23], the pIC50 is 5.96.

With `CCCCc1nc2c(c(=O)n(C)c(=S)n2C)n1Cc1ccc(-c2ccccc2-c2nn[nH]n2)cc1` [Compound 13], the pIC50 was 7.31.

On to `Cn1c(=O)c2c(nc(C3CC3)n2Cc2ccc(-c3ccccc3-c3nn[nH]n3)cc2)n(C)c1=O` [Compound 8], for which the negative logarithm of the IC50 (pIC50) is 6.22.

On to `CCOc1nc2c(c(=O)n(CC)c(=O)n2CC)n1Cc1ccc(-c2ccccc2-c2nnn[nH]2)cc1` [Compound 35], for which the negative logarithm of the IC50 (pIC50) is 5.96.

Regarding `CCOc1nc2c(c(=O)n(C)c(=O)n2C)n1Cc1ccc(-c2ccccc2-c2nnn[nH]2)cc1` [Compound 2, 8-Ethoxy-1,3-dimethyl-7-[[2'-(1 H-tetrazole-5-yl)-biphenyl-4-yl)methyl)xanthine], the negative logarithm of the IC50 (pIC50) was 7.31.

As to `CCCCSc1nc2c(c(=O)n(CC)c(=O)n2CCC)n1Cc1ccc(-c2ccccc2-c2nnn[nH]2)cc1` [Compound 26], the negative-log IC50 (pIC50) was 5.70.

For the compound `CCCCc1nc2c(c(=O)n(C)c(=O)n2C)n1Cc1ccc(-c2ccccc2-c2nnn[nH]2)cc1` [Compound 1], the negative logarithm of the IC50 (pIC50) was 6.55.

Turning to `CCCSc1nc2c(c(=O)n(C)c(=S)n2C)n1Cc1ccc(-c2ccccc2-c2nn[nH]n2)cc1` [Compound 20], the pIC50 was 5.82.

For the compound `CCC=CCc1nc2c(c(=O)n(CCC)c(=O)n2CCC)n1Cc1ccc(-c2ccccc2-c2nnn[nH]2)cc1` [Compound 30], the pIC50 was 6.42.

On to `Cn1c(=O)c2c(nc(-c3ccccc3)n2Cc2ccc(-c3ccccc3-c3nn[nH]n3)cc2)n(C)c1=O` [Compound 7], for which the negative-log IC50 (pIC50) was 7.19.

Regarding `CCCCSc1nc2c(c(=S)n(C)c(=O)n2C)n1Cc1ccc(-c2ccccc2-c2nn[nH]n2)cc1` [Compound 17], the pIC50 is 6.12.

Turning to `CCCCSc1nc2c(c(=O)n(C)c(=O)n2C)n1Cc1ccc(-c2ccccc2C(=O)O)cc1` [Compound 33], the pIC50 was 6.55.

As to `CCCCc1nc2c(c(=O)n(CCC)c(=O)n2CCCC)n1Cc1ccc(-c2ccccc2-c2nnn[nH]2)cc1` [Compound 28], the pIC50 is 6.72.

In the case of `CCCSc1nc2c(c(=S)n(C)c(=O)n2C)n1Cc1ccc(-c2ccccc2-c2nn[nH]n2)cc1` [Compound 19], the pIC50 is 5.82.

On to `CCCc1nc2c(c(=O)n(CC)c(=O)n2CCC)n1Cc1ccc(-c2ccccc2-c2nn[nH]n2)cc1` [Compound 21], for which the negative-log IC50 (pIC50) was 6.25.

As to `Cn1c(=O)c2c(nc(Cc3ccccc3)n2Cc2ccc(-c3ccccc3-c3nn[nH]n3)cc2)n(C)c1=O` [Compound 10], the negative logarithm of the IC50 (pIC50) was 5.47.

Regarding `CC(C)Cc1nc2c(c(=O)n(C)c(=O)n2C)n1Cc1ccc(-c2ccccc2-c2nn[nH]n2)cc1` [Compound 15], the negative logarithm of the IC50 (pIC50) was 6.82.

For the compound `CCCCc1nc2c(c(=O)n(CCCC)c(=O)n2C)n1Cc1ccc(-c2ccccc2-c2nnn[nH]2)cc1` [Compound 29], the negative logarithm of the IC50 (pIC50) is 6.00.

Turning to `CCCCc1nc2c(c(=O)n(CCCC)c(=O)n2CCCC)n1Cc1ccc(-c2ccccc2-c2nnn[nH]2)cc1` [Compound 27], the pIC50 was 5.68.

In the case of `Cn1c(=O)c2c(nc(C3CCCC3)n2Cc2ccc(-c3ccccc3-c3nn[nH]n3)cc2)n(C)c1=O` [Compound 9], the negative logarithm of the IC50 (pIC50) is 6.03.

Turning to `CCCCCc1nc2c(c(=O)n(C)c(=O)n2C)n1Cc1ccc(-c2ccccc2C(=O)O)cc1` [Compound 4, 7-(2'-Carboxybiphenyl-4-yl)methyl-8-n-pentyl-1,3-dimethylxanthine], the negative-log IC50 (pIC50) is 7.21.

Regarding `CCCCSc1nc2c(c(=O)n(CCC)c(=O)n2CCC)n1Cc1ccc(-c2ccccc2-c2nnn[nH]2)cc1` [Compound 25], the pIC50 was 6.25.
